Source: patent US10335378B2, “Inhibition of central nervous system effects from smoking and sensory effects from smoking” (Altria Client Services LLC, priority 2013, dated 2019)
“Also recorded” adds a separate entry of the source.

What was measured:
TRPV1 channel = assay: Heat (45° C.)-induced CGRP release in tracheal samples; format: cell-based, mouse; details: FIG. 6; for Heat-induced CGRP release with test substance: 45° C.
nAChR receptor [1] = assay: Nicotine-induced CGRP release in mouse trachea tissue (ELISA); format: cell-based; details: for Maximal nicotinic response (CGRP release, time course): trachea tissue pretreated with nicotine, then enantiomer, FIG. 2; for CGRP release versus nicotine alone: trachea samples exposed to nicotine plus test substance, FIG. 1b
Procedure: (§1) CGRP is a sensory biomarker of neurons that mediate information to the brain. CGRP release can be detected in vitro using whole trachea tissue by exposing the tissue to a stimulatory compound. A standard ELISA assay may then be used to measure the release of CGRP. The active ingredient was tested using a mouse trachea model.
In order to determine whether a specific enantiomer of the active ingredient show greater efficacy, time course experiments were conducted in which trachea tissue samples were pretreated with nicotine and exposed to either the (−) or (+) enantiomer of camphor.
(§2) (FIG. 3a). […] Calcium-imaging experiments were performed on mouse nodose/jugular Ggl neurons with images captures at 340 and 380 nm over time. (FIG. 3b). […] (FIG. 3b). […] (FIG. 3c). […] (FIG. 3c). […] (FIG. 3d).

nAChR receptor [2] = assay: Epibatidine-induced CGRP release in tracheal tissue; format: cell-based, mouse
TRPA1 channel [3] = molecular target: T1, TRPA1 channel (Mus musculus, UniProt Q8BLA8); assay: Acrolein-induced CGRP release in mouse trachea tissue; format: cell-based; parameters: CGRP release can be detected in vitro using whole trachea tissue; from tissue; host or cells: mouse trachea; details: FIG. 7; for CGRP release versus acrolein alone: trachea samples exposed to acrolein plus test substance
Procedure: as §1
(FIG. 7). […] (FIG. 7). […] (FIG. 7).

acetylcholine receptors = details: adrenal gland cells; cited from earlier work
[4] = system: mouse nodose/jugular Ggl neurons; assay: Calcium imaging (340 and 380 nm) of nicotine-stimulated neurons; format: cell-based; details: FIG. 3b
Procedure: as §2

tracheal tissue samples = assay: Total particulate matter (TPM)-stimulated CGRP release in tracheal tissue samples; format: cell-based; details: FIG. 10
From the text: To assess the potential of camphor on GCRP release stimulated by cigarette smoking, tracheal tissue samples were exposed to total particulate matter (TPM) containing the same amount of nicotine as in the nicotine alone experiment. […] (FIG. 10). […] (FIG. 10). The results observed in the TPM experiments are similar to those seen in experiments in which nicotine is used alone. (FIG. 10).

TRPA1 channel [5] = molecular target: T1, TRPA1 channel; assay: Formalin-stimulated CGRP release in skin and tracheal tissue samples; format: cell-based; parameters: formalin-stimulated GCRP release in both skin and tracheal tissue samples; from tissue; host or cells: skin and tracheal tissue samples; details: FIG. 8
Procedure: (§3) Similar dosing experiments were performed using formalin, a TRPA1 channel […]. […] (FIG. 8). […] Thus, in some embodiments, active ingredients may be used that inhibit both the nicotinic acetylcholine receptors and the TRPA1 channel. […] (FIG. 9). […] (FIG. 9).

TRPA1 channel [6] = molecular target: T1, TRPA1 channel; assay: TRPA1 irritant-stimulated iCGRP release in tracheal tissue samples; format: cell-based; parameters: formalin-stimulated GCRP release in both skin and tracheal tissue samples; from tissue; host or cells: skin and tracheal tissue samples; details: tracheal tissue samples with TRPA1 channel irritants; FIG. 9
Procedure: as §3

nerve fibers = details: isolated mouse trachea model; cited from earlier work
[7] = system: nicotinic acetylcholine receptors; assay: Nicotine-induced CGRP release in buccal mucosa tissue samples; format: cell-based, mouse
From the text: Active ingredients appropriate for use in embodiments described herein may also include isoborneol.

[8] = tracheal samples of normal mice
[9] = tracheal samples of TRPV1 knockout mice

T1 sequence (Q8BLA8 whole entry): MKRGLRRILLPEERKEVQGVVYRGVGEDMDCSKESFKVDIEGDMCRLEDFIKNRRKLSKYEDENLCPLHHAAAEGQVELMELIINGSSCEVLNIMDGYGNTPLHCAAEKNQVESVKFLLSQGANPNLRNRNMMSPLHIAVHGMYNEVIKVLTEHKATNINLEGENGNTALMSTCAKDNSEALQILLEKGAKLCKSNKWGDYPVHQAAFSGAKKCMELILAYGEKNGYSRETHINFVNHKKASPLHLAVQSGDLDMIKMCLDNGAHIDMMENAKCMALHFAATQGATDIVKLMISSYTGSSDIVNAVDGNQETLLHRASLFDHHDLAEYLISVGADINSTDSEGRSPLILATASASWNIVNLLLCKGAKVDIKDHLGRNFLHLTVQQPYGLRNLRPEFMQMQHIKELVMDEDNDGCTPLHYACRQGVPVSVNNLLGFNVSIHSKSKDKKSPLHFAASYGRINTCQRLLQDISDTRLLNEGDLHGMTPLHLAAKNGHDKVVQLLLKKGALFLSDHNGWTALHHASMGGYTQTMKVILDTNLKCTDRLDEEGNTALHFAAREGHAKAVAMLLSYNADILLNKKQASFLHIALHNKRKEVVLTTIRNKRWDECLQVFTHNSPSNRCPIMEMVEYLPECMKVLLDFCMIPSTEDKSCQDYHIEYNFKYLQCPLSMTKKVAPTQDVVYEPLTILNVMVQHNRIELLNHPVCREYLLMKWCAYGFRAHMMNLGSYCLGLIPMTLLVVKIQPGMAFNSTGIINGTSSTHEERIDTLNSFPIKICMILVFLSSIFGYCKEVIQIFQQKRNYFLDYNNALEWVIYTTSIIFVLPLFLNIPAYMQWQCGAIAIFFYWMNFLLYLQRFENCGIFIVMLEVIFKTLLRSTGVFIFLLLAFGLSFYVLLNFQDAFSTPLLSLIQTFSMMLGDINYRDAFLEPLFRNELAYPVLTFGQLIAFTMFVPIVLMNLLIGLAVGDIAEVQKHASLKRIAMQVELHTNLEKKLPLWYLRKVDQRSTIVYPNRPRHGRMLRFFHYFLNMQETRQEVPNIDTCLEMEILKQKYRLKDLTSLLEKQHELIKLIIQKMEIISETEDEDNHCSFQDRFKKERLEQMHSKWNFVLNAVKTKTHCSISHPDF

NCCOB(c1ccccc1)c1ccccc1 [2-APB]
Heat-induced CGRP release with test substance (TRPV1 channel; [8]): increase CGRP release

CC12CCC(CC1=O)C2(C)C (single isomer, unassigned; (+)) [(+) enantiomer of camphor]
Maximal nicotinic response (CGRP release, time course) (nAChR receptor [1]): effective at abolishing the maximal nicotinic response

CNC1(C)C2CCC(C2)C1(C)C (stereo not shown) [Mecamylanine, reference compound]
Epibatidine-induced CGRP release with inhibitor (nAChR receptor [2]; tracheal tissue, FIG. 3c): release of CGRP could be inhibited

CC1(C)[C@H]2CC[C@]1(C)C(=O)C2 (single isomer, unassigned) [(−) enantiomer of camphor]
Maximal nicotinic response (CGRP release, time course) (nAChR receptor [1]): effective at abolishing the maximal nicotinic response

C=CC=O [acrolein, reference compound]
CGRP release induced by the stimulus alone (TRPA1 channel [3]; trachea tissue, various concentrations, FIG. 1c): cause CGRP release at various concentrations; also recorded: released increased amounts of CGRP when exposed to higher concentrations

CC12CCC(CC1=O)C2(C)C (stereo not shown) [camphor]
Nor-epinephrine release (acetylcholine receptors): inhibit nor-epinephrine release from adrenal gland cells | Epibatidine-induced CGRP release with camphor in absence of TRPA1 (nAChR receptor [2]; tracheal samples from TRPA1 knockout mice, FIG. 3d): effectively inhibited CGRP release; also recorded: marked reduction in CGRP release | Epibatidine-induced CGRP release with inhibitor (nAChR receptor [2]; tracheal tissue, FIG. 3c): release of CGRP could be inhibited | Nicotine-stimulated calcium influx in combination with test substance [4]: not when given in combination with camphor | Dose dependence of anti-nicotinic effect (CGRP release) (nAChR receptor [1]; mouse trachea, nicotine plus various concentrations of camphor, FIG. 3a): CGRP release was decreased as the concentration of camphor was increased | CGRP release versus nicotine alone (nAChR receptor [1]): released less CGRP compared to samples exposed to nicotine alone | Heat-induced CGRP release with test substance (TRPV1 channel; [9]): released comparable levels of CGRP relative to normal samples | Heat-induced CGRP release with test substance (TRPV1 channel; [8]): released comparable levels of CGRP relative to normal samples | TPM-stimulated CGRP release with camphor (tracheal tissue samples): largely blocked | CGRP release versus acrolein alone (TRPA1 channel [3]; FIG. 1c): decrease in CGRP release; also recorded: marked reduction in CGRP release | CGRP release in camphor treated samples as acrolein concentration was increased (TRPA1 channel [3]; versus acrolein only at the same concentration): significantly lower levels of CGRP | Effect of camphor at high formalin concentrations (TRPA1 channel [5]; both skin and tracheal tissue samples): could be overcome at high formalin concentrations | Formalin-stimulated CGRP release with camphor (TRPA1 channel [5]; skin tissue samples): decrease in formalin-stimulated GCRP release | Formalin-stimulated CGRP release with camphor (TRPA1 channel [5]; tracheal tissue samples): decrease in formalin-stimulated GCRP release | TRPA1 channel mediated release of iCGRP with camphor (TRPA1 channel [6]): reduce the TRPA1 channel mediated release of iCGRP | Activation of nerve fibers induced by nicotine (nerve fibers): effectively inhibit activation of nerve fibers | CGRP release after nicotine followed by test substance, versus nicotine alone ([7]; buccal mucosa time course, male mice showed stronger inhibition, FIGS. 5a and 5b): CGRP release was significantly lower | CGRP release with nicotine and camphor ([7]; buccal mucosa, TRPA1/TRPV1 double knockouts, FIG. 4): did not show a significant change in CGRP release

CCO [ethanol]
CGRP release in ethanol-treated TRPV1 knockout samples relative to ethanol-treated normal samples (TRPV1 channel; heat treated tracheal samples): 5 fold less | Heat-induced CGRP release with test substance (TRPV1 channel; [9]): increase in CGRP release relative to untreated TRPV1 knockouts | Heat-induced CGRP release with test substance (TRPV1 channel; [8]): increase CGRP release

CC(C)(C)c1ccc(NC(=O)N2CCN(c3ncccc3Cl)CC2)cc1 [BCTC, reference compound]
CGRP release versus nicotine alone (nAChR receptor [1]): did not show any significant reduction in CGRP release

Clc1ccc(C2CC3CCC2N3)cn1 (stereo not shown) [epibatidine, reference compound]
CGRP release induced by the stimulus alone (nAChR receptor [2]; tracheal tissue, FIG. 3c): increased release of CGRP

CC(C)c1ccc(NC(=O)Cn2cnc3c2c(=O)n(C)c(=O)n3C)cc1 [HC030031, reference compound]
CGRP release versus nicotine alone (nAChR receptor [1]): did not show any significant reduction in CGRP release | CGRP release versus acrolein alone (TRPA1 channel [3]; FIG. 1c): CGRP release was also reduced

CN1CCCC1c1cccnc1 (stereo not shown) [nicotine]
Calcium influx, stimulus alone [4]: stimulated calcium influx in Ggl neurons | CGRP release induced by the stimulus alone (nAChR receptor [1]; mouse trachea, FIG. 1a): induce the release of calcitonin gene-related peptide (CGRP) | CGRP release induced by nicotine alone ([7]; buccal mucosa, TRPA1/TRPV1 double knockout mice, FIG. 4): did not respond to nicotine exposure by releasing similar amounts of CGRP relative to normal mice | CGRP release induced by nicotine alone ([7]; buccal mucosa, normal C57Bl/6 mice, FIG. 4, FIGS. 5a and 5b): released increased amounts of CGRP; also recorded: increased release of CGRP
